Test system: children with autism
Experiment: 12-week placebo-controlled study of NAC: Social Responsiveness Scale (SRS)
Type: in vivo, human
Source text: The Social Responsiveness Scale (SRS) (Constantino, J. et al., J Dev Behav Pediatr, 21:2-11 (2000); Constantino, J. et al., J Autism Dev Disord., 3:427-433 (2003)) is a norm-referenced, 65-item parent report questionnaire developed to measure social behaviors, including social awareness, social information processing, reciprocal social communication, and social anxiety, in both clinical and non-clinical populations. It is designed for use with children ages 4 through 18, and more recently, a special version of the SRS has been developed for preschoolers (Pine, E. et al., Autism, 10:344-352 (2006)). The SRS items measure the Autistic Spectrum Disorder (ASD) symptoms in the domains of social awareness, social information processing, reciprocal social communication, social anxiety/avoidance, and stereotypic behavior/restricted interests. Each item is scored from 1 (not true) to 4 (almost always true). Scores are obtained for five treatment subscales: Social Awareness (e.g., “Is aware of what others are thinking or feeling”), Social Cognition (e.g., “Doesn't recognize when others are trying to take advantage of him or her”), Social Communication (e.g., “Avoids eye contact or has unusual eye contact”), Social Motivation (e.g., “Would rather be alone than with others”), and Autistic Mannerisms (e.g., “Has an unusually narrow range of interests”). The SRS summary score was continuously distributed within each group and minimally correlated with Intelligent Quotient (IQ). High scores indicate more severe behavioral symptoms.
A 12-week, double-blind randomized, placebo-controlled study of NAC in children with autism was conducted in the Autism & Developmental Disabilities Clinic in the Division of Child & Adolescent Psychiatry at Stanford University Medical Center. The recruitment period started in March 2009 and ended in September 2010. Subjects with and without mental retardation were included. After obtaining informed consent, subjects were screened and inclusion and exclusion criteria were assessed. No changes in eligibility criteria were applied throughout the study. This investigation was approved by the institutional review board at Stanford University School of Medicine. An investigational new drug application (IND#100905) was filed with the Food and Drug Administration, and the study was registered in National Institutes of Health at ClinicalTrials.gov (identifier number NCT00627705).
After the screening phase, baseline measures were obtained from subjects continuing to meet inclusion and exclusion criteria. Subjects were then randomized to either placebo or active based on age and gender. As NAC is a nutritional supplement, the quality control is predictably variable and therefore purity is not as stringent as prescription medications. Therefore, in the present study, the stability of the compound was ascertained and the integrity of the active agent was protected by packaging each NAC doses in individual pockets. The active compound and matching placebo were provided by BioAdvantex Pharma, Inc. (Mississauga, Ontario, Canada). […] Subjects randomized to the active drug were initiated at the dose of 900 mg every day for the first 4 weeks, then 900 mg twice daily for 4 weeks and 900 mg three times daily for 4 weeks. (This dose selection was based on previously published studies for other psychiatric conditions (Grant, J. et al., Arch Gen Psychiatry, 66:468-475 (2009); Berk, M. et al., Biol Psychiatry, 64:361-368 (2008); Berk, M. et al., Bio Psychiatry, 64:468-475 (2008)) and the previous experience of our group in studies of children with cystic fibrosis). Alternatively, subjects were initiated at the dose of 900 mg per day, 1,800 mg per day, or 2,700 mg per day of NAC. Alternatively, the subjects were initiated at the dose ranging from 900 mg per day to 2,700 mg per day of NAC.
If a subject could not tolerate a specific dose, s/he would be maintained at the highest tolerated dose. […]

## CC(=O)N[C@@H](CS)C(=O)O [NAC, N-acetylcysteine]
Baseline (before treatment), NAC group n = 15
  SRS total, Mean (SD): 111.9 (28.3)
Week 12, NAC n = 14
  SRS total, Mean (SD): 93.8 (26.7)
All randomized participants, NAC vs placebo, p=0.141
  SRS-Total raw scores, treatment effect: did not significantly influence
All randomized participants, p=0.037, said to appear due to regression to the mean
  SRS-Social Cognition sub-scale, treatment effect: significant improvements
All randomized participants, p=0.045
  SRS-Autism Mannerisms sub-scale, treatment effect: significant improvements
All randomized participants, p>0.100
  any other SRS subscale, treatment effect: no significant treatment effects
Participants who completed the study (NAC N=13, placebo N=12), p=0.039
  SRS-Total scores, treatment effect: significantly improved
Standardized mean difference NAC vs placebo at Week 12
  SRS total, Cohen's d: .14
